Test results taken from PMC8362065, “Easily Available, Amphiphilic Diiron Cyclopentadienyl Complexes Exhibit in Vitro Anticancer Activity in 2D and 3D Human Cancer Cells through Redox Modulation Triggered by CO Release” (Chemistry (Weinheim an Der Bergstrasse, Germany), 2021).

Assays:
PSN‐1 cells [1] = assay: ROS production, CM-H2DCFDA fluorescence; type: cell-based, human; conditions: time-dependent (Figure 5A)
Source text: (§1) Iron is a redox active metal that can generate ROS in cells via the Fenton reaction, thus inducing cellular damage and ultimately leading to cell death.[40] […] Based on this premises, we evaluated the effects induced by the diiron complexes on the mitochondria activity and the cellular redox environment. More precisely, we investigated the ROS production and the alteration of the mitochondrial membrane potential. […] The time‐dependent ROS basal production is probably associated to more than one phenomenon. First of all, the progressive disruption of the diiron structure leads to the extrusion of the Fe^I centres, which are expected to subsequently convert into Fe^III (in fact, slow precipitation of iron(III) oxides has been recognized from water solution, see above). […]
(§2) Figure 5 Effects induced by compounds [2C]CF3SO3 and [2D]CF3SO3 at the mitochondrial level. […] The fluorescence of DCF was measured at λ ex=485 nm and λ em=527 nm. […] Fluorescence was estimated at λ ex=490 nm and λ em=590 nm. […]
ROS production. The production of ROS was measured in PSN‐1 cells (10^4 per well) grown for 24 h in a 96‐well plate in RPMI medium without phenol red (Merck). […] Fluorescence increase was estimated by using λ ex=485 nm and λ em=527 nm in a VICTOR X3 (PerkinElmer) plate reader. […]

[2] = test system: thioredoxin reductase (TrxR); conditions: cell-free experiment (data not shown)
Source text: It has recently emerged that the redox stress induced by some iron complexes might also be attributed to their ability to inhibit the selenoenzyme thioredoxin reductase (TrxR).

PSN‐1 cells [3] = assay: Mitochondrial membrane potential; type: cell-based, human; conditions: 24 h (Figure 5B)
Source text: as §1, with “above). Otherwise, based on previous voltammetric measurements on [2E–F]CF3SO3,[41] oxidation of iron enclosed in the complex is out of the range of biologically relevant potentials.” for “above).”
as §2
Mitochondrial membrane potential (ΔΨ). […] Fluorescence intensity was estimated using a VICTOR X3 (PerkinElmer, USA) plate reader at λ ex=490 and λ em=590 nm. […]

HEK293 noncancer cells = assay: Intracellular CO release, fluorescent CO probe; type: cell-based, human; conditions: 20 μM, 30 min, fluorescent probe (Figure 4B)
Experimental: (§3) Figure 4 Intracellular detection of iron and carbon monoxide. A) Cellular uptake in PSN‐1 and HEK293 cells; cells were incubated with 50 μM of complexes for 24 h, and the cellular iron content was detected by GFAAS analysis. B) Intracellular CO levels were determined by using a fluorescent probe (BioTracker Carbon Monoxide Probe 1 Live Cell Dye®, Merck, Germany) after 30 min of treatment of PSN‐1 or HEK293 cells with 20 μM [2C]CF3SO3 and [2D]CF3SO3, or 20 μM CORM‐401 as positive control. ** P<0.01, * P<0.05.
(§4) Additional studies were conducted in order to elucidate the mode of action underlying the cell killing effect of the newly synthesized diiron complexes in cancer cells. In particular, based on the evidence of their tendency to slowly release CO in aqueous media (see section on solubility, partition coefficient, stability in aqueous media), we evaluated the ability of the most performant complexes [2C]CF3SO3 and [2D]CF3SO3 to release carbon monoxide inside PSN‐1 pancreatic cancer cells and HEK293 noncancer cells. A fluorometric test was conducted over a short time interval (30 min) by means of a CO sensing dye (Figure 4B). […] The relatively fast release of carbon monoxide within the cell might be associated to the presence of a consistent amount and variety of biological substrates, which can quicken the formation of CO substitution diiron products. As a matter of fact, it is well documented that [2E–F]CF3SO3 are susceptible to replacement of one terminal CO ligand by suitable C‐, P‐, S‐ and N‐donors to give adducts of general formula [Fe2Cp2(CO)(L)(μ‐CO){μ‐CNR(Me)}]^0/+.[[15b], [16a], [20]] Although the nature of L in the cell context is far from being clarified, it is reasonable to speculate that CO release is readily operative via such substitution pathway. However, an acceleration of the route leading to the extensive decomposition of the diiron scaffold (elimination of three COs per complex), as observed in aqueous media, might also contribute.
(§5) Intracellular CO release. PSN‐1 cell (1×10^4) were seeded in 96‐well plates. After 24 h, cells were treated with 20 μM of tested complexes or CORM‐401 (Merck) for […] at 37 °C and followed by 30 min incubation with a fluorescent probe BioTracker Carbon Monoxide Probe 1 Live Cell Dye® (Merck). The intracellular fluorescence, indicative of CO accumulation in cells, was quantified using a VICTOR X3 (PerkinElmer) plate reader.

[4] = test system: PSN‐1 pancreatic cancer cells; assay: Intracellular CO release, fluorescent CO probe; type: cell-based, human; conditions: PSN‐1 cells, 20 μM, 30 min, fluorescent probe (Figure 4B)
Experimental: as §3, §4, §5

Substance | Cellular ROS production (PSN‐1 cells [1]) | TrxR inhibition [2] | Cells with depolarized mitochondria (mitochondrial membrane potential) (PSN‐1 cells [3]) | Intracellular CO levels (HEK293 noncancer cells) | Intracellular CO levels [4]
[Fe2Cp2(CO)2(μ‐CO){μ‐CNMe(C6H11)}]X [[2C]CF3SO3] | substantial increase in cellular ROS production | completely ineffective | significant dose‐dependent increase of cells with depolarized mitochondria | lower levels of CO were detected | effective in significantly release CO
[Fe2Cp2(CO)2(μ‐CO){μ‐CNMe(4‐C6H4OMe)}]CF3SO3 [[2D]CF3SO3] | substantial increase in cellular ROS production | completely ineffective | significant dose‐dependent increase of cells with depolarized mitochondria | lower levels of CO were detected | effective in significantly release CO
